Assay results as given in a melting point compilation (Tetko et al.; mined from patent text by program, amines drawn as free bases though some values may be those of a salt).

Row | SMILES | melting point [°C]
1 | Cc1oc(-c2ccccc2)nc1COc1ccc(CON=C(CCCCC(N)=O)c2ccccc2)cc1 | 95 to 96
2 | COc1ccc(-c2nnc3c4ccccc4c(Nc4cccc(-c5nn[nH]n5)c4)nn23)cc1 | 305 to 308
3 | CCS(=O)(=O)c1cc(C(=O)NCC2CCCN2CC2CCC2)c(OC)cc1N (stereo not drawn) | 170
4 | COc1ccc2c(c1)CCN(Cc1c[nH]c3ncccc13)C2 | 144 to 146
5 | CCC(CC)COc1ccc(S(=O)(=O)C2(C(=O)NO)CCN(Cc3ccccc3)CC2)cc1 | 114
6 | Nc1ncnc2c1ncn2Cc1oc2ccccc2c(=O)c1-c1ccccc1 | 173 to 175
7 | NC(=O)CCc1ccc(F)cc1F | 107 to 108
8 | Cc1ccc(-c2nc(Cl)c3ccccc3n2)cc1 | 113 to 115
9 | CCCn1c(=O)c2[nH]c(C34CC5CC(CC(O)(C5)C3)C4)nc2n(CCC)c1=O | 213 to 214
10 | COC(=O)CNc1cc(-c2c3ccccc3c(Br)c3sc(C)c(C)c23)cc(Br)c1OC | 194 to 198
11 | CCOCCn1cc2c(C3C(=O)Nc4ccc(Cl)cc43)nc(NCCN(C)C)nc2n1 (stereo not drawn) | 293 to 295
12 | Fc1ccc(-c2cc(CCOCc3ccccc3)cc(OCCCCCl)c2)cc1 | 48 to 49
13 | CCS(=O)(=O)c1ncc(C(F)(F)F)cn1 | 98
14 | CCOC(=O)c1ncn2c1CNC(=O)c1cc(F)ccc1-2 | 298
15 | CCc1c(C(=O)C(N)=O)c2c(OCC(=O)O)cc3c(c2n1Cc1ccccc1)CCCC3 | 222 to 225
16 | NC(=C[N+](=O)[O-])NC1=CC2CCC1C2 (stereo not drawn) | 128 to 132
17 | Cc1cc(C(O)(C(F)(F)F)C(F)(F)F)cc(C)c1SCC(=O)O | 133 to 135
18 | c1ccc2c(c1)Oc1ccccc1C2NCc1ccncc1 | 83 to 85
19 | CC1CCCCN1C(=O)C=Cc1ccc(C(F)(F)F)cc1 (stereo not drawn) | 88 to 89
20 | O=S(=O)(c1ccc(Cl)cc1)C1(c2cnccc2Cl)CCCCC1 | 145 to 147
21 | CCS(=O)(=O)N[C@H]1CC[C@H](CCN2CCC(c3cccc4c3CCO4)CC2)CC1 | 131
22 | CCOc1nc(NCc2ccco2)nc(N2CCN(Cc3ccccn3)CC2)n1 | 115 to 117
23 | O=C(c1ccc([N+](=O)[O-])cc1)N1Cc2ccccc2-c2ccccc21 | 153 to 154
24 | C=CC(=O)C(CC1CCOCC1)c1ccc(S(=O)(=O)C2CC2)cc1 (stereo not drawn) | 92 to 93
25 | Cn1c(=O)c(=O)[nH]c2cccnc21 | 238 to 239

Row | SMILES | melting point [°C]
26 | O=C(O)CCSCc1nccc2ccccc12 | 126 to 130
27 | CCOC(=O)C1=C(C)NC(OC)=NC1c1cccc([N+](=O)[O-])c1 (stereo not drawn) | 101 to 103
28 | Nc1c(Cl)cc(C(O)CNCCCCCCOCCCCc2ncccn2)cc1Cl (stereo not drawn) | 77 to 79
29 | Cc1cc2cc(CN3CCCC3)cnc2cc1NC(=O)c1ccc(-c2ccsc2)cc1 | 187
30 | Cc1ccc2c(c1)C=Cc1sc(C)nc1C2c1cn(CCN2CCCC2)c(=O)[nH]c1=S (stereo not drawn) | 198
31 | CCOC(=O)c1cc(NC(=O)C(N)Cc2ccc(Cl)c(Cl)c2)c[nH]1 (stereo not drawn) | 134 to 136
32 | CCN(CC)C(=O)Nc1ccc(S(=O)(=O)N2C(=O)C(NCCCCCNC(C)=O)(c3ccccc3Cl)c3cc(Cl)ccc32)cc1 (stereo not drawn) | 195 to 198
33 | COc1cc2c(cc1Nc1ncc(Cl)c(Nc3ccccc3S(=O)(=O)N3CCC(O)C3)n1)CCN(CC(C)O)CC2 (stereo not drawn) | 197 to 199
34 | Cc1cccc2ncc(NC(=O)Nc3ccc(F)cc3F)c(-c3ccccc3Cl)c12 | 218 to 220
35 | C1=C(CC2=NCCN2)CCc2ccccc21 | 221 to 223
36 | O=C(O)c1ccccc1OC1CCOC1=O (stereo not drawn) | 113 to 115
37 | NC(=O)N(O)Cc1ccc(OCc2ccccc2)cc1 | 147 to 149
38 | CCCC(c1ccc(C(=O)c2ccccc2)cc1OCc1ccc(Br)cc1)n1ccnc1 (stereo not drawn) | 70 to 72
39 | O=C(CCCCCBr)Nc1cc(Cl)c(O)c(Cl)c1 | 113 to 114
40 | COc1nc(C)cc(C(=O)NS(=O)(=O)c2ccccc2[N+](=O)[O-])n1 | 212 to 216
41 | CCOc1sc(C(=O)O)c2c1-c1c(cnn1C)CC2 | 258 to 260
42 | CNC(=O)Nc1cc2c(c3c1OC(C)(C)C3)C(c1ccccc1)=NC(C)(C)C2 | 209 to 211
43 | Cc1ccc(-c2c(-c3ccc(S(C)(=O)=O)cc3)cnn(-c3ccc(F)c(F)c3)c2=O)cc1F | 204 to 206
44 | O=C(O)CCC1(CCC(=O)O)CCCCC(CCC(=O)O)(CCC(=O)O)C1=O | 230 to 232
45 | C#CC1=Cc2ccccc2Sc2ccc(S(C)(=O)=O)cc21 | 140 to 143
46 | COc1c2c(c(OC)c(OC)c1OC)CC(C(=O)O)(c1ccc(OCCCC(=O)O)cc1)C2 | 148 to 150
47 | CCCCCC1(C(=O)Nc2ccc(C(=O)O)cn2)CC2=C(C1)C(C)(C)CCC2(C)C | 172 to 174
48 | COc1cc(Nc2c(C#N)cnc3cc(/C=C/CCN4CCN(C)CC4)c(OC)cc23)c(Cl)cc1Cl | 142 to 143
49 | O=C(O)CCC(=O)Nc1cccc(-c2ccnc3c(C(=O)c4cccs4)cnn23)c1 | 240 to 241
50 | CC(C)=CCN(CC=C(C)C)Cc1noc(-c2ncn3c2[C@@H]2CCN2C(=O)c2ccccc2-3)n1 | 119 to 122

Row | SMILES | melting point [°C]
51 | CC(=O)c1ccc(NC(=O)C(C)(C)C)nc1 | 113 to 115
52 | O=C(O)c1ccsc1COc1ccc(CCCCO)cc1 | 140 to 141
53 | Cc1cc2c(s1)CCCC(=O)N2 | 133 to 135
54 | Cc1ccccc1C(=O)Nc1ccc(C(=O)N2CCCC(N(C)S(C)(=O)=O)c3ccccc32)cc1 (stereo not drawn) | 197 to 198
55 | Cc1cc2n(c(=O)n1)C(C)N=C2 (stereo not drawn) | 231 to 232
56 | CCOCc1nc2c(c(C)c(C)n3nnnc23)n1CCNC(=O)OC(C)(C)C | 197 to 199
57 | CN1C(=O)CN=C(c2ccccn2)c2cc(C#C[Si](C)(C)C)ccc21 | 194 to 195
58 | NC(=O)C1(O)c2ccccc2S(=O)(=O)N1Cc1ccc(Br)cc1 (stereo not drawn) | 166 to 168
59 | CCCCCS(=O)(=O)NC(=O)C=Cc1ccc(OCCCC#N)cc1Oc1ncc(C(F)(F)F)cc1Cl | 165 to 166
60 | CC1(C)Oc2ccsc2C(N2CCCC2=O)C1O (stereo not drawn) | 154 to 155
61 | CCOC(=O)N1CCN(CCNc2ncnc3c2sc2nc(-c4ccoc4)c4c(c23)CC(C)(C)CC4)CC1 | 85.1 to 86.4
62 | O=c1c2c(Cc3cccc([N+](=O)[O-])c3)n[nH]c2c2cccnc2n1-c1ccccc1 | > 320
63 | CCCCNC(=O)NCCc1nc(-c2ccc(-c3ccccc3)cc2)c[nH]1 | 178
64 | COc1ccc(N2CCN(C(=O)Oc3ccc(Oc4ccc(C(F)(F)F)cn4)cc3)CC2)c(OC)c1 | 98 to 99
65 | CCOC(=O)C(=CNN(C)C=O)C(=O)c1cc(F)c(F)c(F)c1F | 189
66 | O=C(CC1C2CC3CC(C2)CC1C3)Nc1cccc2[nH]ccc12 (stereo not drawn) | 206 to 208
67 | CN(C)S(=O)(=O)Oc1ccc(-c2ccccc2)cc1 | 105 to 107
68 | CC(C(=O)O)c1ccc([N+](=O)[O-])c(CC(=O)O)c1 (stereo not drawn) | 169 to 171
69 | Cc1cccc(NC(=O)NCC(=O)N(CC(=O)OC(C)(C)C)c2ccccc2Oc2ccccc2)c1 | 204
70 | COc1ccc(-c2cc(Cl)c3cc(O)ccc3c2)cc1 | 116 to 118
71 | CCCCCC(CC(=O)Nc1cc(C(N)=O)ccc1C(C)(C)C)c1cccc(OC)c1OC (stereo not drawn) | 89 to 90
72 | CCOP(=O)(Cc1nnc2c(=O)[nH]c3cc(C(F)(F)F)c([N+](=O)[O-])cc3n12)OCC | 222 to 228
73 | CC(C)c1ccc(-c2nc(COc3ccc(OC(C)(C)C(=O)O)cc3)no2)cc1 | 103
74 | O=C(O)CS(=O)c1cccc(-c2nc(=O)c3ccccc3s2)n1 (stereo not drawn) | 186 to 188
75 | CCOC1CCC2C3CCc4cc(OC)ccc4C3CCC12CC (stereo not drawn) | 74 to 77

Row | SMILES | melting point [°C]
76 | O=C(NCc1ccccc1-c1ccccc1C(=O)NCCc1ccccn1)Nc1ccccc1 | 99
77 | COC(=O)c1ccc(C(=O)Nc2sc3c(c2C(=O)NCc2ccc4c(c2)OCO4)CCCC3)cc1 | 138
78 | CN(CC(O)c1ccc2[nH]c(=O)[nH]c2c1)C1CCC(c2ccccc2)CC1 (stereo not drawn) | 238 to 239
79 | Cn1c(=O)cc(C(N)=S)c2cc(C(=O)c3ccc(Cl)cc3)ccc21 | 210
80 | COc1cc(Cc2cnc(N)nc2N)c2c(c1OC)OC(C)CC2 (stereo not drawn) | 239 to 240
81 | CCC(O)c1cc(C)nc(Oc2c(C)cc(C)cc2C)c1C (stereo not drawn) | 119 to 120
82 | C=CCOC(=O)NC(C)(C)c1ccc(-c2nc(Nc3ccc(CCn4ccnc4)cc3)ncc2Cl)cc1F | 88
83 | Cc1cc(Oc2c(F)cc(C(F)(F)F)cc2Cl)nn1C(N)=O | 132 to 135
84 | CC(C)n1nc(C#C[Si](C)(C)C)ccc1=O | 61 to 62.5
85 | c1ccc2c(c1)C[C@H]1CSC(=Nc3nccs3)N1C2 | 158
86 | CSC(=C[N+](=O)[O-])NCCCCc1nccs1 | 75.5 to 76
87 | CC(=O)c1cc(C(C)=O)c(O)c(C(C)C)c1O | 132 to 133
88 | CC[C@H](COC)n1cc(Cl)nc(N2CCc3cc(OC)cc(C)c32)c1=O | 62 to 64
89 | CC(=O)N(C)c1cccc(OC(CCc2ccc(Cl)cc2)Cn2ccnc2)c1 (stereo not drawn) | 229 to 231
90 | O=C(Oc1ccc(Cl)cc1Cn1nc(-c2ccc(C(F)(F)F)cc2)oc1=O)c1ccc(CCl)cc1 | 142 to 144
91 | Nc1n[nH]c(SCCCO)n1 | 136 to 137
92 | N#Cc1ccc2c(c1)OCC21C(=O)N(Cc2ccccn2)c2ccccc21 (stereo not drawn) | 151 to 153
93 | CNC(=O)COc1cc(OC)ccc1O | 136 to 138
94 | Cc1nc(-c2ccc(OCC(C)C)c(Br)c2)sc1C(=O)O | 200 to 202
95 | COc1nc2ccc(Br)cc2c2c1C(C)(O)c1ccccc1-2 (stereo not drawn) | 159 to 160
96 | CN1CCC(C(O)(c2ccn(C)c2)c2ncc[nH]2)CC1 (stereo not drawn) | 171
97 | CC(C)N(C)c1nccc(Oc2ccc(NC(=O)c3cc(F)cc(N4CCOCC4)c3)c3ccccc23)n1 | 94 to 96
98 | O=C(Cn1c(=O)c(=O)[nH]c2cc(C(F)(F)F)c(-n3cccc3)cc21)NCc1ccccc1 | 241 to 242
